Assays:
[1] = Cytotoxicity against human U2OS cells assessed as cell growth inhibition at 10 uM after 24 hrs relative to control; format: cell-based
[2] = Cytotoxicity against human U2OS cells assessed as cell growth inhibition at 10 uM after 48 hrs relative to control; format: cell-based
[3] = Cytotoxicity against human HEK293 cells assessed as cell growth inhibition at 10 uM after 24 hrs relative to control; format: cell-based
[4] = Cytotoxicity against human HEK293 cells assessed as cell growth inhibition at 10 uM after 48 hrs relative to control; format: cell-based
[5] = Cytotoxicity against human hTERT cells assessed as cell growth inhibition at 10 uM after 24 hrs relative to control; format: cell-based, hTERT-BJ
[6] = Cytotoxicity against human hTERT cells assessed as cell growth inhibition at 10 uM after 48 hrs relative to control; format: cell-based, hTERT-BJ
[7] = Cytotoxicity against human MCF7 cells assessed as cell growth inhibition at 10 uM after 24 hrs relative to control; format: cell-based
[8] = Cytotoxicity against human MCF7 cells assessed as cell growth inhibition at 10 uM after 48 hrs relative to control; format: cell-based
[9] = target: T1, CYP1A2 (Homo sapiens, UniProt P05177); assay: Inhibition of CYP1A2 (unknown origin) at 10 uM relative to control; format: ADME
T1 sequence (P05177 whole entry): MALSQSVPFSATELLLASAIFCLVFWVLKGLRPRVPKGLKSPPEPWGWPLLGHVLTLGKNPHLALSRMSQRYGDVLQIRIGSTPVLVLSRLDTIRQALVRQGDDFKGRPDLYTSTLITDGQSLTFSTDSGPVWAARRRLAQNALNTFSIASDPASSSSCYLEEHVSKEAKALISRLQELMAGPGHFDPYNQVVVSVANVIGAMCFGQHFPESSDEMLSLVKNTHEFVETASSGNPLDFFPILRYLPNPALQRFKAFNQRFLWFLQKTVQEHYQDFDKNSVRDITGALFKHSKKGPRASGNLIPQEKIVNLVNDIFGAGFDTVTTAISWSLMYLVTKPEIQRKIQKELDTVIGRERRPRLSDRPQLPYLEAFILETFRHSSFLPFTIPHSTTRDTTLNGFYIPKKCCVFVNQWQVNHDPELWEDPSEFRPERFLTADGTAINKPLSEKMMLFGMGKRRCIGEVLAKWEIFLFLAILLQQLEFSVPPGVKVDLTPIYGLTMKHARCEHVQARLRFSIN

[10] = target: CYP2C9 (Homo sapiens, UniProt P11712); assay: Inhibition of CYP2C9 (unknown origin) at 10 uM relative to control; format: ADME
Chain of CYP2C9 (P11712 whole entry): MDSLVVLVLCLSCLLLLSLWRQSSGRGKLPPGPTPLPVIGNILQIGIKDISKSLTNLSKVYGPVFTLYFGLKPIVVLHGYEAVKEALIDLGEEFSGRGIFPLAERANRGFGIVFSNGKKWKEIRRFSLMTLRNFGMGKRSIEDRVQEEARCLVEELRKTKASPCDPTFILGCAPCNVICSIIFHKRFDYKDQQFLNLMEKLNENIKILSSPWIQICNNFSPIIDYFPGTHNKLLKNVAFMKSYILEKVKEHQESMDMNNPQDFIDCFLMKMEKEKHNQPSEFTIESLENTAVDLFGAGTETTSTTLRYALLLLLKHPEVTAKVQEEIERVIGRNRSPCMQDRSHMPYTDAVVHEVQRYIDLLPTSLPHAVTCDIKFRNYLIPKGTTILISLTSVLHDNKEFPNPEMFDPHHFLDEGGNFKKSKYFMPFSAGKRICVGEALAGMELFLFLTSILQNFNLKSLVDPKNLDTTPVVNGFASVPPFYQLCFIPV

[11] = target: CYP2C19 (Homo sapiens, UniProt P33261); assay: Inhibition of CYP2C19 (unknown origin) at 10 uM relative to control; format: ADME
[12] = target: CYP2D6 (Homo sapiens, UniProt P10635); assay: Inhibition of CYP2D6 (unknown origin) at 10 uM relative to control; format: ADME
Chain of CYP2D6 (P10635 whole entry): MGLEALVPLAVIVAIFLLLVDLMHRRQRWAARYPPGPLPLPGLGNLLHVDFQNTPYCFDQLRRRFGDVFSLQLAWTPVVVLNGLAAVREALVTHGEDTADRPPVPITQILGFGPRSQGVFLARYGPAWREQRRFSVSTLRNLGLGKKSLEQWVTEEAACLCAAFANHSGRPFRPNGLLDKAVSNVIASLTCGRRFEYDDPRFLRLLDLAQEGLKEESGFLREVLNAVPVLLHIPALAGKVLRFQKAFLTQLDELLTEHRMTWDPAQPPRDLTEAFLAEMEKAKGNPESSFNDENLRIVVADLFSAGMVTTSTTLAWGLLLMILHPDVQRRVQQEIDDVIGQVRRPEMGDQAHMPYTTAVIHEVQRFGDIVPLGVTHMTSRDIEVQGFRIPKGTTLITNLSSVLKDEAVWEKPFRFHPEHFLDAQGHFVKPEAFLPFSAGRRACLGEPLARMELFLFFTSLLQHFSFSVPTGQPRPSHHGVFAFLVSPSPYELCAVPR

[13] = target: CYP3A4 (Homo sapiens, UniProt P08684); assay: Inhibition of CYP3A4 (unknown origin) at 10 uM relative to control; format: ADME
Chain of CYP3A4 (P08684 whole entry): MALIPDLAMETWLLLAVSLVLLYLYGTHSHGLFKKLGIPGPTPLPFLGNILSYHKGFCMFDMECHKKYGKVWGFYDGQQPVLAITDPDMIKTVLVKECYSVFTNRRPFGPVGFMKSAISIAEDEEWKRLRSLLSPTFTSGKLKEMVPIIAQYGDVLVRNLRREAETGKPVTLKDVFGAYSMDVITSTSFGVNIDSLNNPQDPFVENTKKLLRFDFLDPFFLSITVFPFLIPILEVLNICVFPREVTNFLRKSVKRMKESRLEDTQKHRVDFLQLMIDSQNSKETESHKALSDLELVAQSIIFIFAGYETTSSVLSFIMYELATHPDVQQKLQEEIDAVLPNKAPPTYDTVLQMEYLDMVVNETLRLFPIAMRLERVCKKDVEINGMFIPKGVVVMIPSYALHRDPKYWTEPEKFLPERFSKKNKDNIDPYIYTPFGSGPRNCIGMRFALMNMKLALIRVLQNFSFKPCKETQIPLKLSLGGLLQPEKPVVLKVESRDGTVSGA

[14] = target: hERG (KCNH2) (Homo sapiens, UniProt Q12809); assay: Inhibition of human ERG at 10 uM by fluorescence polarization assay relative to control
Chain of hERG (KCNH2) (Q12809 whole entry): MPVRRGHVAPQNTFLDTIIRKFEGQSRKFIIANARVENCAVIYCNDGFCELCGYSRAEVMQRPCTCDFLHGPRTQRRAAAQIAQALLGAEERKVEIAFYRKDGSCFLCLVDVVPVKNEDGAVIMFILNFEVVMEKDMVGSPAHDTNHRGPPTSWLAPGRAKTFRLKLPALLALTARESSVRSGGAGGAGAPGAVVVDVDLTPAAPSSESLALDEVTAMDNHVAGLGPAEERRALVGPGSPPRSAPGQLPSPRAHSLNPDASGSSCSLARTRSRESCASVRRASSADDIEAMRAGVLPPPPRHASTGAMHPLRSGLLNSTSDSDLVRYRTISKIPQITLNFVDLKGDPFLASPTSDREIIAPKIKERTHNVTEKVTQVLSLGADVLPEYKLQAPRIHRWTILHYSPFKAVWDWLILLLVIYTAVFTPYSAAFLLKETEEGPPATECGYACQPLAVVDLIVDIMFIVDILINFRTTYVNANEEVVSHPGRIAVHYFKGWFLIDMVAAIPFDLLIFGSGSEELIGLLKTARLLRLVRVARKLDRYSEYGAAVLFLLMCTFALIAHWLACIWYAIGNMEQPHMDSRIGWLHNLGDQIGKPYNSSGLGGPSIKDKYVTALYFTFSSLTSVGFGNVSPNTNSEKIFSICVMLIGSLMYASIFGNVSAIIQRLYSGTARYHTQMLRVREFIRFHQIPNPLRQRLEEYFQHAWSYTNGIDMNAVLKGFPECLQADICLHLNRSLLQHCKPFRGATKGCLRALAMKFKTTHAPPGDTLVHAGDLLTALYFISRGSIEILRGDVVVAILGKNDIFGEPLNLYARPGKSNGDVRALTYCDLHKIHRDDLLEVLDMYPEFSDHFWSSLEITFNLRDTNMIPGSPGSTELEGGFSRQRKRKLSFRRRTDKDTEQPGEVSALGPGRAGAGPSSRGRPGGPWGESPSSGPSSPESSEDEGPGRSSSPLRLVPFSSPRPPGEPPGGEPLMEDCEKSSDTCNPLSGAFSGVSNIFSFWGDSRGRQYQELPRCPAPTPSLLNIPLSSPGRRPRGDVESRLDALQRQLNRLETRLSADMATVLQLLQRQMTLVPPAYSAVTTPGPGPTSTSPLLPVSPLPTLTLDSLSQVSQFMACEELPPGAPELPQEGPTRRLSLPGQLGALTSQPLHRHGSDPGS

[15] = target: T2, SIRT7 (Homo sapiens, UniProt Q9NRC8); assay: Inhibition of SIRT7 (unknown origin) at 10 uM relative to control
T2 sequence (Q9NRC8 whole entry): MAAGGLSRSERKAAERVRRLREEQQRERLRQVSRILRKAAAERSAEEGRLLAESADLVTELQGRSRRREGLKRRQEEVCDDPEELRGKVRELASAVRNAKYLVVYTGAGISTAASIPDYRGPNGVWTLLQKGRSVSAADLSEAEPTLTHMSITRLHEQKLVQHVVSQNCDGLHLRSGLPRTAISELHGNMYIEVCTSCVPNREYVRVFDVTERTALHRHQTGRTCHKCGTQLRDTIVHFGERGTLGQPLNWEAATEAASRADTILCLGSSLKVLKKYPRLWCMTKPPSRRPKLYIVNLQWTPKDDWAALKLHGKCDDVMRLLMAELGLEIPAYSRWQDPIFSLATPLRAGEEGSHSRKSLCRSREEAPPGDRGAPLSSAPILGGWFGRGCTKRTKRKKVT

[16] = target: HDAC4 (Homo sapiens, UniProt P56524); assay: Inhibition of HDAC4 (unknown origin) at 10 uM relative to control
[17] = target: T3, HDAC6 (Homo sapiens, UniProt Q9UBN7); assay: Inhibition of HDAC6 (unknown origin) at 10 uM relative to control
T3 sequence (Q9UBN7 whole entry): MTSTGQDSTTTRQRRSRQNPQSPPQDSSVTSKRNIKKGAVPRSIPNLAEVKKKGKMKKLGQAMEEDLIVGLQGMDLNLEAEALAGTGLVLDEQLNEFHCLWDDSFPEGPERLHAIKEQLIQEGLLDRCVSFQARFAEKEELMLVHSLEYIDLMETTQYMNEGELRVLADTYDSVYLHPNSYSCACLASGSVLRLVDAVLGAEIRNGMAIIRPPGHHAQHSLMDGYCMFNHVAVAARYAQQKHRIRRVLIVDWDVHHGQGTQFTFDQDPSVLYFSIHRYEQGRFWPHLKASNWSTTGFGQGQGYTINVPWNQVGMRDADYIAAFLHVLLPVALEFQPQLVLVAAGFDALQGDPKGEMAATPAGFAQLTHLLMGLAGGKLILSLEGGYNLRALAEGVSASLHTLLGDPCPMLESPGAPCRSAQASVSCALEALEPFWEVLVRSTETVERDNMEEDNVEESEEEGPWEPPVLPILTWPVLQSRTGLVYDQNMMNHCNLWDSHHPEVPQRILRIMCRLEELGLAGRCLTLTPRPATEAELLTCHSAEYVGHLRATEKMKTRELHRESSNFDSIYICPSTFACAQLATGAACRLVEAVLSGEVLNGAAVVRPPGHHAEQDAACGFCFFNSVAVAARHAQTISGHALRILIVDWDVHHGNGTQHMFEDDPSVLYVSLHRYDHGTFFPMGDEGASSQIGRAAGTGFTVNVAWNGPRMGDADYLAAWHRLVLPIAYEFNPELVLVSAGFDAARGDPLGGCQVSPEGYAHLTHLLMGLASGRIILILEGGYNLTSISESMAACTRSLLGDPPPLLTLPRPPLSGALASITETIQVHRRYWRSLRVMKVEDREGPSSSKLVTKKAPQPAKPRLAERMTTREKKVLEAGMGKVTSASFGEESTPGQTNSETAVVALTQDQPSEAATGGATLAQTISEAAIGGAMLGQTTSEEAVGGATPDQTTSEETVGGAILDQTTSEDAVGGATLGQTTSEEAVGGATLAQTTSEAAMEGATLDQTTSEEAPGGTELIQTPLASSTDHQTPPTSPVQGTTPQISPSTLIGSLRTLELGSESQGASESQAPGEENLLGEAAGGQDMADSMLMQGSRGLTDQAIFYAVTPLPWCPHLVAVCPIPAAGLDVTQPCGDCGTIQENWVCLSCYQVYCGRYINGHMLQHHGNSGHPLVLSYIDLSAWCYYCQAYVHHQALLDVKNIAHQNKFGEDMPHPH

[18] = target: T4, HDAC8 (Homo sapiens, UniProt Q9BY41); assay: Inhibition of HDAC8 (unknown origin) at 10 uM relative to control
T4 sequence (Q9BY41 whole entry): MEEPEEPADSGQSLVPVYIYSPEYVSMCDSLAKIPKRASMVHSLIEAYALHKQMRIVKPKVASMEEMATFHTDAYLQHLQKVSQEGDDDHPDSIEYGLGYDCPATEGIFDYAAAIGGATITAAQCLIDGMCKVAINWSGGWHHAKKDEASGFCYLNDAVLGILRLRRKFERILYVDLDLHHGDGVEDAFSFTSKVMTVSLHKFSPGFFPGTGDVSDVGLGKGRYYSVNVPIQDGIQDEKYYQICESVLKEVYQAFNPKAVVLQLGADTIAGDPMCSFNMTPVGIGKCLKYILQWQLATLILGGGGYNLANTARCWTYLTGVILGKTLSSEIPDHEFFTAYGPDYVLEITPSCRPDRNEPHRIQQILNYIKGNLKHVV

[19] = target: HDAC9 (Homo sapiens, UniProt Q9UKV0); assay: Inhibition of HDAC9 (unknown origin) at 10 uM relative to control
Chain of HDAC9 (Q9UKV0 whole entry): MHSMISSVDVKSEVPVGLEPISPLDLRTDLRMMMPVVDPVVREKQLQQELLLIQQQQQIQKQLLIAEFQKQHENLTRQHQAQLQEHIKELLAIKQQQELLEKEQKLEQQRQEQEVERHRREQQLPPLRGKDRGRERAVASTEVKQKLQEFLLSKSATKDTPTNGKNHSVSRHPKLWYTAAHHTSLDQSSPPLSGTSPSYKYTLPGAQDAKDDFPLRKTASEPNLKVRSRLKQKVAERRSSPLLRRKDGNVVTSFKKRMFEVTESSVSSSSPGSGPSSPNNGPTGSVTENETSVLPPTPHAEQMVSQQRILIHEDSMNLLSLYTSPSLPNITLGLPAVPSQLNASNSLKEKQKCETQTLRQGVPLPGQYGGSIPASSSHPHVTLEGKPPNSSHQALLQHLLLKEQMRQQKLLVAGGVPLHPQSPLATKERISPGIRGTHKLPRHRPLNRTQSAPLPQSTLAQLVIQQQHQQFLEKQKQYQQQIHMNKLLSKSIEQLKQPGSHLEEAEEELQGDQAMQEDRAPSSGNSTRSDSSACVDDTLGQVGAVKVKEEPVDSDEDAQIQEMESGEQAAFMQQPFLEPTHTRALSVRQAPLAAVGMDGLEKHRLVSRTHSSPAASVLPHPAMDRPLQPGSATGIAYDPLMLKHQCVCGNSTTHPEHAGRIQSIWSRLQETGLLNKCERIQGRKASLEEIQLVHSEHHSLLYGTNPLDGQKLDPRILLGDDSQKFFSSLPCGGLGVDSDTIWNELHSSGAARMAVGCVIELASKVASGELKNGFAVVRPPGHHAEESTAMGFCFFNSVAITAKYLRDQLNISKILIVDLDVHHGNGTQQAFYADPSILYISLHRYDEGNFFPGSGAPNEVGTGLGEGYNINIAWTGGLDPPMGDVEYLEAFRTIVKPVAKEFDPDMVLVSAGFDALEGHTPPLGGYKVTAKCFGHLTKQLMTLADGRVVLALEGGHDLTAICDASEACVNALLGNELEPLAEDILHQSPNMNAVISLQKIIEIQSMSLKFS

[20] = target: 3',5'-cyclic-AMP phosphodiesterase 4C (Homo sapiens) (UniProt Q08493); assay: Inhibition of PDE4C1 (unknown origin) at 10 uM relative to control
Chain of 3',5'-cyclic-AMP phosphodiesterase 4C (Homo sapiens) (Q08493 whole entry): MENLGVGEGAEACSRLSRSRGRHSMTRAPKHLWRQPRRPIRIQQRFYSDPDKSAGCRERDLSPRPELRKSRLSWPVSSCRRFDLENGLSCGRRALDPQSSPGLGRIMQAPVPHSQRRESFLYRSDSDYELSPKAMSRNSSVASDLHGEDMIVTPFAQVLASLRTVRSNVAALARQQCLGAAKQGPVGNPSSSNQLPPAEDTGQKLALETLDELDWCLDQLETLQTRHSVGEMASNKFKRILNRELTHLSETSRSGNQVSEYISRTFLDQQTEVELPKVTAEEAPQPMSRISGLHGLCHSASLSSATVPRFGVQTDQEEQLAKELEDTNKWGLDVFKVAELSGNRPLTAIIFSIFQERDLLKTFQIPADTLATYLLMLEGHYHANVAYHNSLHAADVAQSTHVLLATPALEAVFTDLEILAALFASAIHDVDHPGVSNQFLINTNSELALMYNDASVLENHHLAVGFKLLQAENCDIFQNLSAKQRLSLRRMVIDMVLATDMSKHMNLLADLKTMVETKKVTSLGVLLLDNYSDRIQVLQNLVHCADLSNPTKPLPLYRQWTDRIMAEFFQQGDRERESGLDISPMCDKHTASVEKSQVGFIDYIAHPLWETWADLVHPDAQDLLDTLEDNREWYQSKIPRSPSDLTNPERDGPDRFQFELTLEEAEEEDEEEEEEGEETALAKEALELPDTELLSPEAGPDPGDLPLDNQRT

[21] = target: Aurora B (Homo sapiens, UniProt Q96GD4); assay: Inhibition of Aurora B (unknown origin) at 10 uM relative to control
Chain of Aurora B (Q96GD4 whole entry): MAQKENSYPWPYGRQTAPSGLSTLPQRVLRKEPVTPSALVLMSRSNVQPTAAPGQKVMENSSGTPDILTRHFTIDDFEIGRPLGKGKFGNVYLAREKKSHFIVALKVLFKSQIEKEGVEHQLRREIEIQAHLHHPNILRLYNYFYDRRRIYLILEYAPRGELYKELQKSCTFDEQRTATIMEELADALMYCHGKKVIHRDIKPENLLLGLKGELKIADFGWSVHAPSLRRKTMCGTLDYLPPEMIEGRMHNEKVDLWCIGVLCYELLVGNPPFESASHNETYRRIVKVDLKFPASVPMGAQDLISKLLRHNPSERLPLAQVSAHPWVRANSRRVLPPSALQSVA

SMILES	inhibition at 24 h, 10 µM [1] [%]	inhibition at 48 h, 10 µM [2] [%]	inhibition at 24 h, 10 µM [3] [%]	inhibition at 48 h, 10 µM [4] [%]	inhibition at 24 h, 10 µM [5] [%]	inhibition at 48 h, 10 µM [6] [%]	inhibition at 24 h, 10 µM [7] [%]	inhibition at 48 h, 10 µM [8] [%]	inhibition at 10 µM [9] [%]	inhibition at 10 µM [10] [%]	inhibition at 10 µM [11] [%]	inhibition at 10 µM [12] [%]	inhibition at 10 µM [13] [%]	inhibition at 10 µM [14] [%]	inhibition at 10 µM [15] [%]	inhibition at 10 µM [16] [%]	inhibition at 10 µM [17] [%]	inhibition at 10 µM [18] [%]	inhibition at 10 µM [19] [%]	inhibition [20] [%]	further results
CCNc1ccc(Cc2ccc(OCC(=O)O)cc2)cc1C(C)C	< 50	< 50	< 50	< 50	51	< 50	65	51	> 91	> 91	> 91	51	> 91	> 91	< 50	< 50	< 50	< 50	< 50	< 50	inhibition at 10 µM [21]: < 50%
NCCOc1ccc(Cc2ccc(N)cc2)c(C(F)(F)F)c1	< 50	< 50	< 50	< 50	< 50	< 50	< 50	< 50	> 91	> 91	> 91	51	51	51	< 50	< 50	< 50	< 50	< 50	< 50	inhibition at 10 µM [21]: < 50%
CCNc1ccc(Cc2c(C)cc(OCC(=O)O)cc2C)cc1C(C)C	< 50	< 50	< 50	< 50	< 50	< 50	< 50	< 50	51	> 91	> 91	51	> 91	51	< 50	< 50	< 50	< 50	< 50	< 50	inhibition at 10 µM [21]: < 50%

Reference: ChEMBL document CHEMBL4680157, “Design, synthesis and biological evaluation of novel TRβ selective agonists sustained by ADME-toxicity analysis” (Eur J Med Chem, 2020)
